Measurements published in patent US20180291070A1, “PEPTIDES, AND USES THEREOF” (priority 2015, published 2018).
“And” between values parts separate entries of the source, which are not always exact repeats. Identical values can stand only once.

What follows are substances tested on TNF-α (assay: TNF-α secretion by LPS-stimulated THP-1 differentiated macrophages (Biolegend ELISA)). Conditions: THP-1 cells; 100, 10 or 1 ng/ml synthetic peptide 24 h, then 10 ng/ml LPS 5 h; vs untreated control.
Type: cell-based, human
Experimental: TNF-α is secreted by macrophages in response to stimulation by endotoxins such as lipopolysaccharides (LPS). TNF-α is thought to be involved in systemic inflammation and dysregulation of TNF-α production is thought to be involved in many diseases. The Biolegend assay is a sandwich ELISA kit that is designed for the accurate quantitation of human TNF-α from cell culture supernatant, serum or plasma.
THP-1 monocytes were seeded in a 96 well plate at 10,000 cells per well in RPMI containing 10% fetal calf serum (FCS), 1% Pen/strep, 1% L-glutamine, 100 nM PMA and allowed to differentiated for 72 h prior to experimentation.
Following differentiation the cells were incubated with 100 ng/ml, 10 ng/ml or 1 ng/ml synthetic peptide for 24 h respectively.
Following treatment the cells were stimulated with 10 ng/ml LPS for 5 h and the quantity of TNF-α in the supernatant determined using the Biolegend assay ELISA kit.
Results were calculated as a percentage of the untreated control. An increase in optical density reading indicates greater quantity of TNF-α release into cell culture supernatant.
All experiments were prepared in duplicate on three plates (6 wells/conditions). Significance was calculated using Students t-test (*p<0.05 compared to control, **p<0.01 compared to control, *** p<0.001 compared to control).

Substance	TNF-α DECREASE
75 (IYVTDLNNGANQLDPRQRD) [compound 75]	11%
76 (VTNLNSQNFPILNLVQMSAVK) [compound 76]	9%
85 (SIFRALPTDVLANAYRISREE) [compound 85]	80%
91 (TVFNGELR) [compound 91]	80%
92 (QVQVVNNNGKTVF) [compound 92]	13%
93 (YIIQGRGITGPTF) [compound 93]	14%
105 (LAGNKRNPQAYR) [compound 105]	9%
144 (AGILEADR) [compound 144]	16%
320 (KRHGEWRPSYEKEEDEE) [compound 320]	13%
339 (ASSNLNLLGF) [compound 339]	26%
341 (RGDTIKLPAGTTSYLVNQDDEE) [compound 341]	21%
344 (ARLSPGDVVIIPAGHPVAIT) [compound 344]	20%
345 (RGDTIKLPAGTTSYLVNQDDE) [compound 345]	23%
346 (ARLSPGDVVIIPAGHPVA) [compound 346]	18%
349 (LSPGDVVIIPAGHPVAITASSNLNLLGFGINAENNER) [compound 349]	6%
350 (ARLSPGDVVIIPAGHPVAITAS) [compound 350]	80%
351 (LSPGDVVIIPAGHPVAITASSNL) [compound 351]	18%
352 (ARLSPGDVVIIPAGHPVAITA) [compound 352]	23%
353 (HGPVEMPYTLLYPSSK) [compound 353]	20%

Same assay, conditions: THP-1 differentiated macrophages treated 24 hrs. prior to LPS stimulation

Substance	TNF-α secretion reduced vs. untreated cells
QSFLLSGNQ [E_1_788]	80%

The substances below were run on Human Dermal Fibroblasts (HDF) (assay: BrdU Cell Proliferation Assay). Conditions: 5, 0.5 or 0.05 μg/ml synthetic peptide 24 h.
Type: cell-based
Experimental: BrDu is incorporated into newly synthesised DNA strands of actively proliferating cells. Following partial denaturation of double stranded DNA, Brdu is detected immunochemically allowing the assessment of the population of cells which are synthesizing DNA. Human Dermal Fibroblasts (HDF—Sigma 10605a) were seeded in a 96 well plate at 10,000 cells per well in DMEM containing 10% fetal calf serum (FCS), 1% Pen/strep, 1% L-glutamine and allowed to adhere for 24 h. Following the initial 24 h incubation the cells were incubated with 5 μg/ml, 0.5 μg/ml or 0.05 μg/ml synthetic peptide for 24 h respectively. After 18 h incubation with synthetic peptides 20 μl BrDu reagent was added to each well. At 24 h incubation the cell were fixed and the amount of […] was measured using the BrdU Cell Proliferation Assay, all steps were carried out according to the manufacturer's instructions. Results were calculated as a percentage of the untreated control. An increase in optical density reading indicates greatER incorporation of BrDu and increase cell proliferation.

Substance	INCREASE IN PROLIFERATION
73 (SIFRALPNDVLANAYRISREE) [compound 73]	16%
74 (SIFRALPND) [compound 74]	29%
83 (SYQDVYNVAESS) [compound 83]	32%
84 (ISREEAQR) [compound 84]	20%
85 (SIFRALPTDVLANAYRISREE) [compound 85]	35%
93 (YIIQGRGITGPTF) [compound 93]	26%
97 (GEIVRVER) [compound 97]	26%
98 (RGLSLLQPYASLQ) [compound 98]	49%
105 (LAGNKRNPQAYR) [compound 105]	40%
112 (GEELGAFTPR) [compound 112]	15%
114 (SIEQHSGQNIFSGFNNELLSEALGVNALVAK) [compound 114]	119%
121 (PNVNPWHNPRQGGF) [compound 121]	48%
124 (FYNEGDAPVVAL) [compound 124]	15%
146 (VFIDHPSFLEK) [compound 146]	80%
158 (NNQRNFLAGDEDNVISQIQRPVKE) [compound 158]	21%
181 (DLAIPVNRPGQLQS) [compound 181]	33%
222 (DDEEEEQGEEEINK) [compound 222]	110%
226 (KEDDEEEEQGEEEINK) [compound 226]	30%
247 (LVDLVIPVNGPGKFEAFDLAK) [compound 247]	28%
248 (DNVISQIENPVKE) [compound 248]	86%
249 (VVIIPAGHPVAITASSNLNLLGFG) [compound 249]	30%
252 (VIPVNGPGKF) [compound 252]	111%
253 (SKKSLPSE) [compound 253]	112%

Substance	INCREASE IN PROLIFERATION
256 (IPVNGPGKF) [compound 256]	117%
257 (LPQHIDADL) [compound 257]	118%
270 (HGEWRPSYEKQEDEEEK) [compound 270]	47%
272 (PSYEKEEDEEEGQR) [compound 272]	97%
285 (VVIIPAGHPVA) [compound 285]	81%
330 (NKNQYLRGFS) [compound 330]	18%
337 (NKNQYLRGFSKNILE) [compound 337]	8%
341 (RGDTIKLPAGTTSYLVNQDDEE) [compound 341]	83%
359 (GTSSVINNLPLDVVAATFNLQRNE) [compound 359]	15%
365 (AGTSSVINNLPLDV) [compound 365]	58%
403 (HPVAVRASSNLNLLGFGINAE) [compound 403]	51%
410 (TLFLPQYTDADFILVVLSGK) [compound 410]	73%
452 (YYGEQQQQPGMTR) [compound 452]	76%
453 (SYEESMPMPLEQGWSSSSSE) [compound 453]	25%
454 (YYGEGSSEEGYYGEQQQQPGMTR) [compound 454]	38%
455 (QQQQPGMTRV) [compound 455]	47%
457 (SYEESMPMPLEQGWSSSSSEY) [compound 457]	114%
460 (GEGSSEEGYYGEQQQQPGMTR) [compound 460]	38%
461 (YGEGSSEEGYYGEQQQQPGMTR) [compound 461]	85%
462 (QQQQPGMTRVR) [compound 462]	15%
463 (QYAAQLPSMCRVEPQQCSIFAAGQY) [compound 463]	100%
464 (TVFNGVLRPGQL) [compound 464]	18%
465 (TVFNGVLRPGQLL) [compound 465]	96%

Substance	INCREASE IN PROLIFERATION
467 (NGVLRPGQL) [compound 467]	90%
468 (ALVAKRLQGQNDQRGEI) [compound 468]	82%
470 (PRYSNTPGMV) [compound 470]	119%
471 (YSNTPGMVY) [compound 471]	38%
472 (LVPRYSNTPGM) [compound 472]	77%
473 (FYNEGDAPVV) [compound 473]	41%
474 (FYNEGDAPVVAL) [compound 474]	121%
477 (FYNEGDAPVVA) [compound 477]	81%
478 (EVEERSQNIF) [compound 478]	76%
479 (VEERSQNIFSGF) [compound 479]	106%
480 (ASLQEQEQGQVQ) [compound 480]	102%
482 (ASLQEQEQGQVQSR) [compound 482]	113%
495 (SGFSTELLSEALGVSSQVAR) [compound 495]	68%
496 (GAFTPLQYKSYQD) [compound 496]	51% and 81%
497 (GLLLPHYTNGASLVY) [compound 497]	58%
499 (ALPTDVLANAYR) [compound 499]	113%
500 (DFLLAGNK) [compound 500]	6%
501 (DVLANAYR) [compound 501]	43%
502 (GAFTPLQYK) [compound 502]	68%
503 (QGDVIALPAGVAHW) [compound 503]	125%
504 (FGAFTPLQYKSY) [compound 504]	119%
505 (FLLAGNKRNPQAYR) [compound 505]	118%
